Biological target: T1, GLP (Homo sapiens, UniProt Q9H9B1)
T1 construct: His6 (N); made in house; host or cells: E. coli BL21 (DE3)pLysS-rosetta
T1 sequence (Q9H9B1 1-1298): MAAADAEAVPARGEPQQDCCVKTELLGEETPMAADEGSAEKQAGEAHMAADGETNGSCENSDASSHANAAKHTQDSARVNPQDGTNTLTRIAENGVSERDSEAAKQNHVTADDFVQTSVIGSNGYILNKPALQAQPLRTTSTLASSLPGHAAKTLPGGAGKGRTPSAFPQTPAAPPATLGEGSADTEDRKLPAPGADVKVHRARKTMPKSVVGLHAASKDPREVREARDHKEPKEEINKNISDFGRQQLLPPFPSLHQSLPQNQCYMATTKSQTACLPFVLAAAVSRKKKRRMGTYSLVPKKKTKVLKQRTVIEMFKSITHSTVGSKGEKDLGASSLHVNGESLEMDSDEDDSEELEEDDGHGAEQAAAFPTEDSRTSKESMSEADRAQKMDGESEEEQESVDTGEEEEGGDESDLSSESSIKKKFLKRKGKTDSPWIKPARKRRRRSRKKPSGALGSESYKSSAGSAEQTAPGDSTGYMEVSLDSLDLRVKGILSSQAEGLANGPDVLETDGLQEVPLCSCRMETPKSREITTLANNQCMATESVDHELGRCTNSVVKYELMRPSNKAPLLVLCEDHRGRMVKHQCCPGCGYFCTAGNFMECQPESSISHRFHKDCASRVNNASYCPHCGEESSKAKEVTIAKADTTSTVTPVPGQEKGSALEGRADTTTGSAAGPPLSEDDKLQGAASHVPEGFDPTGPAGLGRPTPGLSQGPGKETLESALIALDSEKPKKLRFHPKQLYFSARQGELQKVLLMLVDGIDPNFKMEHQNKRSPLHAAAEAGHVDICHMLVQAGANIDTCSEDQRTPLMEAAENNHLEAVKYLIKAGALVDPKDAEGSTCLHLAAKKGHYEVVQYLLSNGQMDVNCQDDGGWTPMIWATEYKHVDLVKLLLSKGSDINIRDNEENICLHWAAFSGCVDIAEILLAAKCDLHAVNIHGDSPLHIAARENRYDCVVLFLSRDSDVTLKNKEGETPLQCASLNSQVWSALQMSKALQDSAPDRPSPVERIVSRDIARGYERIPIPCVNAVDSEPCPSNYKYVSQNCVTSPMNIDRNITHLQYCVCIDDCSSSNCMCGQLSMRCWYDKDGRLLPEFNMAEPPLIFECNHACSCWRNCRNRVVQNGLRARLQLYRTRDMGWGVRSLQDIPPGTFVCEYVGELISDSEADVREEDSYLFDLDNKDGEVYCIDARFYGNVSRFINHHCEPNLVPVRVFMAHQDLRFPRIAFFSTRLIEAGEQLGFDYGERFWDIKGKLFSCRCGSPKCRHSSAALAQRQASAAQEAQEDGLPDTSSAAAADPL
Assay: MALDI-TOF MS methylation assay of H3K9 peptides with GLP
Type: biochemical
Details: peptide 100 µM, 37 °C
Description: MALDI-MS methyltransferases activity experiments were performed using a Bruker instrument in the reflectron positive mode. For regular methyltransferase standard conditions experiment which carried out in 30 µL total volume, the mixture contains peptide (100 µM), SAM (200 µM), SETD8 or SETD7 (2 µM), in assay buffer 50 mM Tris at optimal pH 8.0. In case of G9a and GLP, similar conditions were used, except (500 µM) of SAM was added to the reaction mixture. […] A 5 µL aliquot of the solution was mixed with 5 µL of MeOH, after which 5 µL of this mixture was mixed with 5 µL of α-cyano-4-hydroxycinamic acid matrix (CHCA, 5 mg/mL in 125:125 µL acetonitrile/water). The spots were placed on a stainless steel MALDI plate (MS 96 target ground steel BC of Bruker, Germany). The mass corresponding to one monomethylation observed as +14 Da, dimethylation observed as +28 Da and trimethylation observed as +42 Da. The enzymatic activity was determined by taking the peak areas of each methylation state, including all isotopes and adducts, and was annotated using FlexAnalysis software (Bruker Daltonics, Germany). […] Methylated peptide substrates were repeated five times and the unmethylated substrates were triplicated. Sequences of the examined peptides are given in (Supplementary Table 1).

[1] = GLP 10 µM, SAM 1 mM, 5 h, MALDI-MS

With ARTKQTAR(Kba9)STGGKA [H3Kba9] the “GLP-catalyzed methylation, result in words” value (GLP 2 µM, SAM 500 µM, 1 h, MALDI-TOF MS) was “traces detected”, the “GLP-catalyzed methylation, result in words, increased GLP/SAM” value [1] was “monomethylation” and the “GLP-catalyzed monomethylation, increased GLP/SAM” value [1] was 55%.

From paper PMC7048932, “Examining sterically demanding lysine analogs for histone lysine methyltransferase catalysis” (Scientific Reports, 2020)
